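Method: 48-hour compound exposure of cells in 96-well plates, five concentrations, linear interpolation of endpoints. GI50 is the concentration that inhibits growth by half. TGI: concentration producing complete growth inhibition.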
Key:
Assay in all cases: NCI-60 cell line screen, 48 h
IGROV1 ovarian = tested on: IGROV1 ovarian
A549 NSCLC = tested on: A549 NSCLC
HCC-2998 colon = tested on: HCC-2998 colon
SF-295 CNS = tested on: SF-295 CNS
NCI-H522 lung = tested on: NCI-H522 lung
K-562 leukemia = tested on: K-562 leukemia
OVCAR-4 ovarian = tested on: OVCAR-4 ovarian
786-0 renal = tested on: 786-0 renal
COLO 205 colon = tested on: COLO 205 colon
BT-549 breast = tested on: BT-549 breast

Structure (SMILES) | TGI (IGROV1 ovarian) [µM] | TGI (A549 NSCLC) [µM] | TGI (HCC-2998 colon) [µM] | TGI (SF-295 CNS) [µM] | TGI (NCI-H522 lung) [µM] | TGI (K-562 leukemia) [µM] | TGI (OVCAR-4 ovarian) [µM] | TGI (786-0 renal) [µM] | TGI (COLO 205 colon) [µM] | GI50 (IGROV1 ovarian) [µM] | GI50 (A549 NSCLC) [µM] | GI50 (HCC-2998 colon) [µM] | GI50 (SF-295 CNS) [µM] | GI50 (NCI-H522 lung) [µM] | GI50 (K-562 leukemia) [µM] | GI50 (OVCAR-4 ovarian) [µM] | GI50 (786-0 renal) [µM] | GI50 (COLO 205 colon) [µM] | GI50 (BT-549 breast) [µM] | TGI (BT-549 breast) [µM]
Cn1c(=O)c2/c(n(C)c1=O)=N\C=c1\c(=O)n(C)c(=O)n(C)\c1=N\C=2 | > 100 | > 100 | > 100 | > 100 | > 100 | > 100 | > 100 | > 100 | > 100 |  |  |  |  |  |  |  |  |  |  | 
Cc1cc(I)cc(CN(C)CCCN2CCN(C)CC2)c1O | > 100 | > 100 | 56.8 | 39.6 | 97.1 | 40.1 | > 100 | > 54.2 | 42 | 40.5 | 36 | 24.7 | 18.5 | 46.4 | 14.6 | > 73.1 | 18.6 | 19.3 | 21 | > 73.9
CC#Cc1nc(Nc2cc(C)[nH]n2)c2ccccc2n1 | 15.4 | 26.8 | 5.48 | 34.5 | 22 | > 100 | > 100 | 29 | 10.3 | 2.58 | 5.16 | 2.43 | 12.3 | 6.24 | 11.7 | 3.46 | 5.86 | 3.26 | 4.9 | 23.2
O=C(CCc1ccc(O)cc1)N/N=C/c1cc(Br)ccc1O | 93.3 | > 100 | 96.9 | > 100 | 18.1 | 28.6 | 82 | 70.7 | > 100 | 6.23 | 4.03 | 7.12 | 3.25 | 3.73 | 3.12 | 3.19 | 3.73 | 14 | 4.19 | 44.8
CS(=O)(=O)N(c1cc(-c2ccc3ncnc(Nc4cccc(Cl)c4)c3c2)cnc1Cl)S(C)(=O)=O | 0.528 | 4.24 | 2.53 | 3.17 | 7.74 | 45.1 | 10.4 | 6.76 | 2.04 | 0.0951 | 1.03 | 0.69 | 0.542 | 0.645 | 1.23 | 1.04 | 0.506 | 0.421 | 0.318 | 3.03
COc1ccc(Cn2cc3c(c2-c2cc(OC)c(OC)c(OC)c2)CCc2cnoc2-3)cc1 | > 100 | > 100 | > 100 | 0.821 | 1.17 | > 32.3 | > 100 | > 100 |  | 0.394 | 0.372 | 0.557 | 0.129 | 0.107 | 0.111 | 0.768 | 0.575 |  | 1.62 | > 100
O=C1C(Cl)=C(Nc2cccc(O)c2)C(=O)N1Cc1ccc(Cl)cc1Cl | 13.8 | 28.1 | 16.4 | 25.1 | 9.95 | 29.7 | 15 | 18.8 | 30.2 | 1.17 | 8.33 | 3.55 | 11.3 | 1.43 | 4.81 | 2.9 | 1.94 | 3.11 |  | 
Brc1cc2c(cc1Br)CN(c1ccccc1)C2 | > 100 | > 100 | > 100 | > 100 |  | > 100 | > 100 | > 100 | > 100 |  |  |  |  |  |  |  |  |  |  | 
O=C(/C=C\c1ccccc1)N1CCc2ccccc2C1 | > 100 |  | > 100 | > 100 |  | 45.8 | > 100 | > 100 | 57.1 |  |  |  |  |  |  |  |  |  |  | 
C[C@]12CCC(=O)C=C1CC[C@@H]1C2CC[C@]2(C)c3nn(-c4ccccc4)nc3CC12 (stereo partly drawn) | > 100 | > 100 | > 100 | > 100 |  | > 100 | > 100 | > 100 | > 100 |  |  |  |  |  |  |  |  |  |  | 
COc1cccc2c1n([O-])c1cccc(OC)c1[n+]2=O | 66.1 | > 100 | 11.6 | 18.5 | 28.1 | > 100 |  | 28.8 | 28.5 | 4.8 | 7.78 | 2.36 | 3.03 | 5.77 | 6.13 |  | 8.78 | 12.1 | 8.1 | 21.8
CN(C)CC/C(=N\Nc1ccc(Cl)cc1Cl)c1ccccc1 | 22.8 | 29.6 |  | 32.9 |  | 33.4 |  | 27.5 | 29.2 |  |  |  |  |  |  |  |  |  |  | 
Oc1ccc(Cc2cc(Cl)cc(Cl)c2O)cc1Cl | 34.1 | 41.3 |  | 39.6 | 31.6 | 37.6 | 58.3 | 43 | 35 |  |  |  |  |  |  |  |  |  |  | 33.4
NNC(=O)C(=O)N/N=C(\CCC(=O)Nc1ccc(Cl)cc1)Cc1nc2ccccc2s1 | 51.3 | > 100 | > 100 | > 100 | 40.8 | > 100 |  | > 100 | > 100 |  |  |  |  |  |  |  |  |  |  | 
Cc1cccc2c(O)cc(=O)oc12 | > 100 | > 100 |  | > 100 |  | > 100 | > 100 | > 100 |  |  |  |  |  |  |  |  |  |  |  | 
O=S1Nc2c(Cl)cc(Cl)c(Cl)c2S1 (stereo not drawn) | > 100 | > 100 | > 100 | > 100 | > 100 | > 100 | > 100 | > 100 | > 100 |  |  |  |  |  |  |  |  |  |  | 
O=NN(CCCl)C(=O)NC1CCC(CC2CCC(NC(=O)N(CCCl)N=O)CC2)CC1 (stereo not drawn) | > 67.8 | > 100 | > 100 | > 79.2 | 48.3 | > 100 | > 100 | 69.9 | > 88.1 |  |  |  |  |  |  |  |  |  |  | 
OCCN1CCN(CC/C=C2/c3ccccc3Sc3ccc(Cl)cc32)CC1 | 28.6 | 29.9 | 23.5 | 32.6 | 30.1 | 8.65 | 31.5 | 26.7 | 23.3 |  |  |  |  |  |  |  | 13.2 |  |  | 

— PubChem BioAssay (NCI)
